Assay results published in patent US8076338B2, “Kinase modulators and methods of use” (Exelixis, Inc., priority 2004, dated 2011).

What was measured:
AktK = AktK (Homo sapiens, UniProt P31749); test: Luciferase-coupled chemiluminescence kinase assay (ATP consumption); type: biochemical; details: Table 1; class symbols per key; read-out: AKT-1 IC50
Summary of the method: (§1)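 Enzyme at 2.5-5 nM was preincubated 30 min at room temperature with compound in Tris pH 7.5, MgCl2, TX-100, DTT, then reacted with ATP for 3 h at ambient temperature. Remaining ATP was quantified by luciferase-luciferin chemiluminescence, with consumption kept at 25-60%; […].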

p70S6K = p70S6K (Homo sapiens, UniProt P23443); test: as above; type: biochemical; details: Table 1; class symbols per key
Sequence of p70S6K (P23443 whole entry): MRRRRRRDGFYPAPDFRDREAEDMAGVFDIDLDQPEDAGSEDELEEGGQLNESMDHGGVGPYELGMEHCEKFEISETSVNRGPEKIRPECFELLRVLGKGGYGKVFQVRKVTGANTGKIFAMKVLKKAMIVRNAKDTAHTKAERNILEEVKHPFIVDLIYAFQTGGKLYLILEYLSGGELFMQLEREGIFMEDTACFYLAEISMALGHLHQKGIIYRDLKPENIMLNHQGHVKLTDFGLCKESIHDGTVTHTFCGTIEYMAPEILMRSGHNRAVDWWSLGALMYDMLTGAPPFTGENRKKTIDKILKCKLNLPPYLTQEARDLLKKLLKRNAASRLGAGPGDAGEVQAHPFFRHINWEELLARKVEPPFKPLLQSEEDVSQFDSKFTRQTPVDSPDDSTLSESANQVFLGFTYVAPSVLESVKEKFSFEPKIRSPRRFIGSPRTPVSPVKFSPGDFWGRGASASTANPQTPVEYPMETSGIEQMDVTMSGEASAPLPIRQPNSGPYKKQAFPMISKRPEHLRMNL
Summary of the method: as §1

Sequence of AktK (P31749 whole entry): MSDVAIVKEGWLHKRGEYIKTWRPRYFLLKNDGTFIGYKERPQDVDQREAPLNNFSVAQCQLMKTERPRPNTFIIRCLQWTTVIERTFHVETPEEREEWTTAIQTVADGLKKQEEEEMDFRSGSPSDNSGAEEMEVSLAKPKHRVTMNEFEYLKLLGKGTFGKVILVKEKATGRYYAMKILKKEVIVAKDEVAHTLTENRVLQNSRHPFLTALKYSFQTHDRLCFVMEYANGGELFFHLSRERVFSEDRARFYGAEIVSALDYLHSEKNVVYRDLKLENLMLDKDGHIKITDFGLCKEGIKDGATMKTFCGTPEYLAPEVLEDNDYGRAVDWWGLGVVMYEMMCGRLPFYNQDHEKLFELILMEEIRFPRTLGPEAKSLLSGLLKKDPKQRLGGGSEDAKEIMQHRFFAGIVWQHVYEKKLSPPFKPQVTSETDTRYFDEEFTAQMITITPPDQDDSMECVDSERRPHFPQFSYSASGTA

Row | Structure (SMILES) | IC50 (AktK) [µM] | IC50 (p70S6K) [µM]
1 | O=C1COc2ccc(-c3ccnc(N4CCN(c5ncnc6[nH]nc(Br)c56)CC4)n3)cc2N1 [Entry 144, 6-{2-[4-(3-bromo-1H-pyrazolo[3,4-d]pyrimidin-4-yl)piperazin-1-yl]pyrimidin-4-yl}-2H-1,4-benzoxazin-3(4H)-one] | 1 to 10 | 1 to 10
2 | CCc1n[nH]c2ncnc(N3CCN(c4cccc(OC)c4C)CC3)c12 [Entry 145, 3-ethyl-4-{4-[2-methyl-3-(methyloxy)phenyl]piper-azin-1-yl}-1H-pyrazolo[3,4-d]pyrimidine] | ≥ 10 | < 0.1
3 | CCc1n[nH]c2ncnc(N3CCN(c4cc(Cl)cc(NCCN(C)C(C)C)c4C)CC3)c12 [Entry 146, N′-{5-chloro-3-[4-(3-ethyl-1H-pyrazolo[3,4-d]pyrimidin-4-yl)piperazin-1-yl]-2-methylphenyl}-N-methyl-N-(1-methylethyl)ethane-1,2-diamine] | 0.1 to 1 | < 0.1
4 | CCc1n[nH]c2ncnc(N3CCN(c4cc(Cl)cc(NCCN(C)CC)c4C)CC3)c12 [Entry 147, N′-{5-chloro-3-[4-(3-ethyl-1H-pyrazolo[3,4-d]pyrimidin-4-yl)piperazin-1-yl]-2-methylphenyl}-N-ethyl-N-methylethane-1,2-diamine] | 0.1 to 1 | < 0.1
5 | Cc1c(NCCN(C)C)cc(Cl)cc1N1CCN(c2ncnc3[nH]nc(Br)c23)CC1 [Entry 148, N′-{3-[4-(3-bromo-1H-pyrazolo[3,4-d]pyrimidin-4-yl)piperazin-1-yl]-5-chloro-2-methylphenyl}-N,N-dimethylethane-1,2-diamine] | < 0.1 | < 0.1
6 | CCN(CC)CCCOc1nc(Cl)nc(N2CCN(c3ncnc4[nH]nc(Br)c34)CC2)c1C [Entry 149, 3-({6-[4-(3-bromo-1H-pyrazolo[3,4-d]pyrimidin-4-yl)piperazin-1-yl]-2-chloro-5-methylpyrimidin-4-yl}oxy)-N,N-diethylpropan-1-amine] | 1 to 10 | 0.1 to 1
7 | Clc1cccc(N2CCN(c3ncnc4[nH]nc(Br)c34)CC2)c1Cl [Entry 150, 3-bromo-4-[4-(2,3-dichlorophenyl)piperazin-1-yl]-1H-pyrazolo[3,4-d]pyrimidine] | ≥ 10 | 0.1 to 1
8 | FC(F)(F)c1cccc(N2CCN(c3ncnc4[nH]nc(Br)c34)CC2)c1 [Entry 155, 3-bromo-4-{4-[3-(trifluoromethyl)phenyl]piperazin-1-yl}-1H-pyrazolo[3,4-d]pyrimidine] | ≥ 10 | < 0.1
9 | Cc1c(Br)cc(Cl)cc1N1CCN(c2nc(N)nc3[nH]ncc23)CC1 [Entry 159, 4-[4-(3-bromo-5-chloro-2-methylphenyl)piperazin-1-yl]-1H-pyrazolo[3,4-d]pyrimidin-6-amine] | ≥ 10 | 1 to 10
10 | Cc1c(OCCN2CCCC2)cc(Cl)cc1N1CCN(c2ncnc3[nH]nc(C4CC4)c23)CC1 [Entry 160, 4-(4-{5-chloro-2-methyl-3-[(2-pyrrolidin-1-ylethyl)oxy]phenyl}piperazin-1-yl)-3-cyclopropyl-1H-pyrazolo[3,4-d]pyrimidine] | 1 to 10 | < 0.1
11 | Cc1c(NCCN2CCCC2)cc(Cl)cc1N1CCN(c2ncnc3[nH]nc(C4CC4)c23)CC1 [Entry 161, 5-chloro-3-[4-(3-cyclopropyl-1H-pyrazolo[3,4-d]pyrimidin-4-yl)piperazin-1-yl]-2-methyl-N-(2-pyrrolidin-1-ylethyl)aniline] | 0.1 to 1 | < 0.1
12 | Cc1c(NCCN2CCCC2)cc(Cl)cc1N1CCN(c2ncnc3[nH]nc(CC(C)C)c23)CC1 [Entry 162, 5-chloro-2-methyl-3-{4-[3-(2-methylpropyl)-1H-pyrazolo[3,4-d]pyrimidin-4-yl]piperazin-1-yl}-N-(2-pyrrolidin-1-ylethyl)aniline] | 0.1 to 1 | < 0.1
13 | Cc1c(OCCN2CCCC2)cc(Cl)cc1N1CCN(c2ncnc3[nH]nc(CC(C)C)c23)CC1 [Entry 163, 4-(4-{5-chloro-2-methyl-3-[(2-pyrrolidin-1-ylethyl)oxy]phenyl}piperazin-1-yl)-3-(2-methylpropyl)-1H-pyrazolo[3,4-d]pyrimidine] | 1 to 10 | < 0.1
14 | CCc1n[nH]c2ncnc(N3CCN(c4cc(Br)cc(N)c4C)CC3)c12 [Entry 165, 5-bromo-3-[4-(3-ethyl-1H-pyrazolo[3,4-d]pyrimidin-4-yl)piperazin-1-yl]-2-methylaniline] | 0.1 to 1 | < 0.1
15 | Brc1n[nH]c2ncnc(N3CCN(c4nccnc4OCCN4CCCCC4)CC3)c12 [Entry 167, 3-bromo-4-(4-{3-[(2-piperidin-1-ylethyl)oxy]pyrazin-2-yl}piperazin-1-yl)-1H-pyrazolo[3,4-d]pyrimidine] | 1 to 10 | 0.1 to 1
16 | CCc1n[nH]c2ncnc(N3CCN(c4ncnc5cc(OC)c(OC)cc45)CC3)c12 [Entry 169, 4-[4-(3-ethyl-1H-pyrazolo[3,4-d]pyrimidin-4-yl)piperazin-1-yl]-6,7-bis(methyloxy)quinazoline] | ≥ 10 | 1 to 10
17 | CCc1n[nH]c2ncnc(N3CCN(c4cc(Cl)cc(OCCN(CC)CC)c4)CC3)c12 [Entry 170, 2-({3-chloro-5-[4-(3-ethyl-1H-pyrazolo[3,4-d]pyrimidin-4-yl)piperazin-1-yl]phenyl}oxy)-N,N-diethylethanamine] | ≥ 10 | 0.1 to 1
18 | CCc1n[nH]c2ncnc(N3CCN(c4cc(C(F)(F)F)ccc4Cl)CC3)c12 [Entry 171, 4-{4-[2-chloro-5-(trifluoromethyl)phenyl]piperazin-1-yl}-3-ethyl-1H-pyrazolo[3,4-d]pyrimidine] | 1 to 10 | < 0.1
19 | CCc1n[nH]c2ncnc(N3CCN(c4cc(OCC(C)C)cc(NCCN5CCCC5)c4C)CC3)c12 [Entry 172, 3-[4-(3-ethyl-1H-pyrazolo[3,4-d]pyrimidin-4-yl)piperazin-1-yl]-2-methyl-5-[(2-methyl-propyl)oxy]-N-(2-pyrrolidin-1-ylethyl)aniline] | < 0.1 | < 0.1
20 | CCN(CC)CCCOc1nc(Cl)c(C)c(N2CCN(c3ncnc4[nH]nc(Br)c34)CC2)n1 [Entry 173, 3-({4-[4-(3-bromo-1H-pyrazolo[3,4-d]pyrimidin-4-yl)piperazin-1-yl]-6-chloro-5-methylpyrimidin-2-yl}oxy)-N,N-diethylpropan-1-amine] | 1 to 10 | 0.1 to 1
21 | CCc1n[nH]c2ncnc(N3CCN(c4cc(OCc5ccccc5)cc(NCCN5CCCC5)c4C)CC3)c12 [Entry 174, 3-[4-(3-ethyl-1H-pyrazolo[3,4-d]pyrimidin-4-yl)piperazin-1-yl]-2-methyl-5-[(phenylmethyl)oxy]-N-(2-pyrrolidin-1-ylethyl)aniline] | 0.1 to 1 | < 0.1

Further lines, results first:

Row | IC50 (AktK) [µM] | IC50 (p70S6K) [µM] | Structure (SMILES)
22 | ≥ 10 | 0.1 to 1 | FC(F)(F)c1ccccc1N1CCN(c2ncnc3[nH]nc(Br)c23)CC1 [Entry 151, 3-bromo-4-{4-[2-(trifluoromethyl)phenyl]piperazin-1-yl}-1H-pyrazolo[3,4-d]pyrimidine]
23 | ≥ 10 | < 0.1 | Brc1n[nH]c2ncnc(N3CCN(c4ccccc4)CC3)c12 [Entry 152, 3-bromo-4-(4-phenylpiperazin-1-yl)-1H-pyrazolo[3,4-d]pyrimidine]
24 | ≥ 10 | 0.1 to 1 | Fc1ccc(N2CCN(c3ncnc4[nH]nc(Br)c34)CC2)cc1 [Entry 153, 3-bromo-4-[4-(4-fluorophenyl)piperazin-1-yl]-1H-pyrazolo[3,4-d]pyrimidine]
25 | ≥ 10 | 0.1 to 1 | Clc1ccc(N2CCN(c3ncnc4[nH]nc(Br)c34)CC2)cc1 [Entry 154, 3-bromo-4-[4-(4-chlorophenyl)piperazin-1-yl]-1H-pyrazolo[3,4-d]pyrimidine]
26 | ≥ 10 | 0.1 to 1 | Brc1ccc(N2CCN(c3ncnc4[nH]nc(Br)c34)CC2)cc1 [Entry 157, 3-bromo-4-[4-(4-bromophenyl)piperazin-1-yl]-1H-pyrazolo[3,4-d]pyrimidine]
27 | 1 to 10 | < 0.1 | Cc1cccc(N2CCN(c3ncnc4[nH]nc(Br)c34)CC2C)c1 (stereo not drawn) [Entry 158, 3-bromo-4-[3-methyl-4-(3-methylphenyl)piperazin-1-yl]-1H-pyrazolo[3,4-d]pyrimidine]
28 | 0.1 to 1 | < 0.1 | Cc1ccc(Cl)cc1N1CCN(c2ncnc3[nH]nc(Br)c23)C[C@@H]1C [Entry 164, 3-bromo-4-[(3S)-4-(5-chloro-2-methylphenyl)-3-methylpiperazin-1-yl]-1H-pyrazolo[3,4-d]pyrimidine]
29 | 1 to 10 | < 0.1 | O=C(COc1cccc(N2CCN(c3ncnc4[nH]nc(Br)c34)CC2)c1)NC1CC1 [Entry 166, 2-({3-[4-(3-bromo-1H-pyrazolo[3,4-d]pyrimidin-4-yl)piperazin-1-yl]phenyl}oxy)-N-cyclopropylacetamide]
30 | ≥ 10 | 0.1 to 1 | Cc1ccc(Cl)cc1N1CCN(c2ncnc3[nH]nc(Br)c23)C[C@H]1C [Entry 176, 3-bromo-4-[(3R)-4-(5-chloro-2-methylphenyl)-3-methylpiperazin-1-yl]-1H-pyrazolo[3,4-d]pyrimidine]
31 | 0.1 to 1 | < 0.1 | Cc1ccc(C(=O)Nc2ccccc2)cc1N1CCN(c2ncnc3[nH]nc(Br)c23)C[C@@H]1C [Entry 177, 3-[(2S)-4-(3-bromo-1H-pyrazolo[3,4-d]pyrimidin-4-yl)-2-methylpiperazin-1-yl]-4-methyl-N-phenylbenzamide]
32 | 1 to 10 | < 0.1 | Cc1ccc(C(=O)NCc2ccccc2)cc1N1CCN(c2ncnc3[nH]nc(Br)c23)C[C@@H]1C [Entry 178, 3-[(2S)-4-(3-bromo-1H-pyrazolo[3,4-d]pyrimidin-4-yl)-2-methylpiperazin-1-yl]-4-methyl-N-(phenylmethyl)benzamide]
33 | < 0.1 | < 0.1 | COC(=O)c1ccc(C)c(N2CCN(c3ncnc4[nH]nc(Br)c34)CC2)c1 [Entry 179, methyl 3-[4-(3-bromo-1H-pyrazolo[3,4-d]py-rimidin-4-yl)piperazin-1-yl]-4-methylbenzoate]
